Biological target: T1, wildtype HIV-1 protease (Human immunodeficiency virus type 1 group M subtype B, UniProt P04585)
T1 construct: the wildtype HIV-1 protease (which was expressed in Escherichia coli); made in house; host or cells: Escherichia coli
Experiment: Assay for inhibition of microbial expressed HIV protease (Pepcleav)
Type: biochemical
Details: Pepcleav (nM)
Procedure: Assay for Inhibition of Microbial Expressed HIV Protease (“Pepcleav”)
Studies of the inhibition of the wildtype HIV-1 protease (which was expressed in Escherichia coli) were carried out with a peptide substrate [Val-Ser-Gln-Asn-(βnaphthyl)Ala-Pro-Ile-Val (SEQ ID NO:1)]. The inhibitor is first preincubated with the HIV-1 protease (wild type) enzyme in assay buffer (50 mM sodium acetate, pH 5.5, 100 mM NaCl, and 0.1% BSA) for 30 minutes at room temperature. Substrate is added to 400 micromolar in a total volume of 20 microliters containing 20 picomolar HIV-1 protease (final) and the reaction is incubated for 1 hour at 30° C. The reaction is quenched with the addition of formic acid and indinavir to 0.012% and 150 nM final concentrations, respectively. The product formation is determined after separation of product and substrate on a Zorbax Eclipse XDB-C 18 column connected to an API 4000 mass spectrometer (Applied Biosystems) with multiple reaction monitoring (transitions were 644.5/428.9 and 615.4/422.2 (M1/M3) for product and indinavir respectively). The extent of inhibition of the reaction is determined from the peak area of the products.

Structure (SMILES) | IC50 [nM]
COC(=O)N[C@H](C(=O)Nc1ccccc1CC[C@@H]1CN[C@H](COC(=O)N[C@H]2CO[C@H]3OCC[C@H]32)CO1)C(c1ccccc1)c1ccccc1 [Example 13, N-(2-{2-[(2R,5S)-5-({[(3R,3aS,6aR)-hexahydrofuro[2,3-b]furan-3-ylcarbamoyl]oxy}methyl)morpholin-2-yl]ethyl}phenyl)-Nα-(methoxycarbonyl)-β-phenyl-L-phenylalaninamide] | 110

Same assay, conditions: wild type HIV-1 protease expressed in E. coli, peptide substrate, pH 5.5; mean of at least two independent experiments; read-out: Pepcleav

Structure (SMILES) | IC50 [nM]
CNC(=O)OC[C@@H]1CO[C@H](CCc2ccccc2NC(=O)[C@@H](NC(=O)OC)C(c2ccccc2)c2ccccc2)CN1 [Example 30] | 32
NC(=O)OC[C@@H]1CO[C@H](CCc2c(F)cncc2NC(=O)[C@@H](N)C(c2ccc(F)cc2)c2ccc(F)cc2)CN1 [Example 119, N-[4-(2-{(2R,5S)-5-[(Carbamoyloxy)methyl]morpholin-2-yl}ethyl)-5-fluoropyridin-3-yl]-4-fluoro-β-(4-fluorophenyl)-L-phenylalaninamide] | 6.9
COC(=O)N[C@H](C(=O)Nc1ccccc1CC[C@@H]1CN[C@H](COC(=O)NC2CCC2)CO1)C(c1ccccc1)c1ccccc1 [Example 23, methyl N-[(1S)-1-benzhydryl-2-[[2-[2-[(2R,5S)-5-(cyclobutylcarbamoyloxymethyl)morpholin-2-yl]ethyl]phenyl]amino]-2-oxo-ethyl]carbamate] | 80
C[C@H](Oc1c(F)cccc1NC(=O)[C@@H](N)C(c1ccc(F)cc1)c1ccc(F)cc1)[C@@H]1CN[C@H](COC(=O)NCc2ccc(F)cc2)CO1 [Example 195, 4-fluoro-N-(3-fluoro-2-{(1S)-1-[(2S,5S)-5-({[(4-fluorobenzyl)carbamoyl]oxy}methyl)morpholin-2-yl]ethoxy}phenyl)-β-(4-fluorophenyl)-L-phenylalaninamide] | 91
COC(=O)N[C@H](C(=O)Nc1ccccc1CC[C@@H]1CN[C@H](Cn2cc(-c3ccccc3)nn2)CO1)C(c1ccccc1)c1ccccc1 [Example 64, Nα-(methoxycarbonyl)-β-phenyl-N-[2-(2-{(2R,5R)-5-[(4-phenyl-1H-1,2,3-triazol-1-yl)methyl]morpholin-2-yl}ethyl)phenyl]-L-phenylalaninamide] | 56
N[C@@H](Cc1ccccc1C1CC1)C(=O)Nc1cncc(F)c1CC[C@@H]1CN[C@H](COC(=O)NCC(F)(F)F)CO1 [Example 189, 2-cyclopropyl-N-(5-fluoro-4-{2-[(2R,5S)-5-({[(2,2,2-trifluoroethyl)carbamoyl]oxy}methyl)morpholin-2-yl]ethyl}pyridin-3-yl)-L-phenylalaninamide] | 1730
COC(=O)N[C@H](C(=O)Nc1ccccc1CC[C@@H]1CN[C@H](CNC(=O)Nc2cc[nH]n2)CO1)C(c1ccccc1)c1ccccc1 [Example 43, methyl N-[(1S)-1-benzhydryl-2-oxo-2-[[2-[2-[(2R,5R)-5-[(1H-pyrazol-3-ylcarbamoylamino)methyl]morpholin-2-yl]ethyl]phenyl]amino]ethyl]carbamate] | 96
COC(=O)N[C@H](C(=O)Nc1ccccc1CC[C@@H]1CN[C@H](C(=O)O)CO1)C(c1ccccc1)c1ccccc1 [Example 1, (3S,6R)-6-[2-(2-{[N-(methoxycarbonyl)-β-phenyl-L-phenylalanyl]amino}phenyl)ethyl]morpholine-3-carboxylic acid] | 65
COC(=O)N[C@H](C(=O)Nc1ccccc1CC[C@@H]1CN[C@H](CNC(=O)Nc2ccccc2)CO1)C(c1ccccc1)c1ccccc1 [Example 40, N-α-(methoxycarbonyl)-β-phenyl-N-(2-{2-[(2R,5R)-5-{[(phenylcarbamoyl)amino]methyl}morpholin-2-yl]ethyl}phenyl)-L-phenylalaninamide] | 52
CS(=O)(=O)CC[C@@H]1CO[C@H](COc2c(F)cccc2NC(=O)[C@@H](N)C(c2ccccc2)c2ccccc2)CN1 [Example 232, N-[3-fluoro-2-({(2S,5R)-5-[2-(methylsulfonyl)ethyl]morpholin-2-yl}methoxy)phenyl]-β-phenyl-L-phenylalaninamide] | 150
COC(=O)N[C@H](C(=O)Nc1ccccc1CC[C@@H]1CN[C@H](CNC(=O)c2c(C)cccc2C)CO1)C(c1ccccc1)c1ccccc1 [Example 57, methyl N-[(1S)-1-benzhydryl-2-[[2-[2-[(2R,5R)-5-[[(2,6-dimethylbenzoyl)amino]methyl]morpholin-2-yl]ethyl]phenyl]amino]-2-oxo-ethyl]carbamate] | 50
COC(=O)N[C@H](C(=O)Nc1ccccc1CC[C@@H]1CN[C@H](CNC(=O)c2[nH]c(=O)ccc2F)CO1)C(c1ccccc1)c1ccccc1 [Example 58, methyl N-[(1S)-1-benzhydryl-2-[[2-[2-[(2R,5R)-5-[[(3-fluoro-6-oxo-1H-pyridine-2-carbonyl)amino]methyl]morpholin-4-ium-2-yl]ethyl]phenyl]amino]-2-oxo-ethyl]carbamate] | 66
COC(=O)N[C@H](C(=O)Nc1ccccc1CC[C@@H]1CN[C@H](CNC(=O)OC2CCOC2)CO1)C(c1ccccc1)c1ccccc1 (stereo partly drawn) [Example 84, Nα-(methoxycarbonyl)-β-phenyl-N-(2-{2-[(2R,5R)-5-({[(tetrahydrofuran-3-yloxy)carbonyl]amino}methyl)morpholin-2-yl]ethyl}phenyl)-L-phenylalaninamide] | 670
COC(=O)N[C@H](C(=O)Nc1ccccc1CC[C@@H]1CN[C@H](Cn2ccnn2)CO1)C(c1ccccc1)c1ccccc1 [Example 66, Nα-(methoxycarbonyl)-β-phenyl-N-(2-{2-[(2R,5R)-5-(1H-1,2,3-triazol-1-ylmethyl)morpholin-2-yl]ethyl}phenyl)-L-phenylalaninamide] | 100
N[C@H](C(=O)Nc1cncc(F)c1CC[C@@H]1CN[C@H](COC(=O)N2CCOCC2)CO1)C(c1ccc(F)cc1)c1ccc(F)cc1 [Example 197, {(3S,6R)-6-[2-(3-fluoro-5-{[4-fluoro-β-(4-fluorophenyl)-L-phenylalanyl]amino}pyridin-4-yl)ethyl]morpholin-3-yl}methyl morpholine-4-carboxylate] | 68
N[C@H](C(=O)Nc1cncc(F)c1CC[C@@H]1CN[C@H](COC(=O)NCCN2CCCC2)CO1)C(c1ccc(F)cc1)c1ccc(F)cc1 [Example 233, 4-fluoro-β-(4-fluorophenyl)-N-(5-fluoro-4-{2-[(2R,5S)-5-({[(2-pyrrolidin-1-ylethyl)carbamoyl]oxy}methyl)morpholin-2-yl]ethyl}pyridin-3-yl)-L-phenylalaninamide] | 110
COC(=O)N[C@H](C(=O)Nc1ccccc1CC[C@@H]1CN[C@H](COC(=O)NCc2ccc3nonc3c2)CO1)C(c1ccccc1)c1ccccc1 [Example 21, methyl N-[(1S)-1-benzhydryl-2-[[2-[2-[(2R,5S)-5-(2,1,3-benzoxadiazol-5-ylmethylcarbamoyloxymethyl)morpholin-2-yl]ethyl]phenyl]amino]-2-oxo-ethyl]carbamate] | 52
COC(=O)N[C@H](C(=O)Nc1ccccc1CC[C@@H]1CN[C@H](CNC(=O)Cc2ccccc2)CO1)C(c1ccccc1)c1ccccc1 [Example 53, Nα-(methoxycarbonyl)-β-phenyl-N-(2-{2-[(2R,5R)-5-{[(phenylacetyl)amino]methyl}morpholin-2-yl]ethyl}phenyl)-L-phenylalaninamide] | 12
CCNC(=O)Nc1ccccc1CC[C@@H]1CO[C@H](CCc2ccccc2NC(=O)[C@@H](NC(=O)OC)C(c2ccccc2)c2ccccc2)CN1 [Example 77] | 15
COC(=O)N[C@H](C(=O)Nc1ccccc1CC[C@@H]1CN[C@H](C(=O)N2CCCC2)CO1)C(c1ccccc1)c1ccccc1 [Example 5, Nα-(methoxycarbonyl)-β-phenyl-N-(2-{2-[(2R,5S)-5-(pyrrolidin-1-ylcarbonyl)morpholin-2-yl]ethyl}phenyl)-L-phenylalaninamide] | 80
COC(=O)N[C@H](C(=O)Nc1ccccc1CC[C@@H]1CN[C@H](CCc2ccccc2NC(=O)CCc2ccccc2)CO1)C(c1ccccc1)c1ccccc1 [Example 71, methyl N-[(1S)-1-benzhydryl-2-oxo-2-[[2-[2-[(2R,5R)-5-[2-[2-(3-phenylpropanoylamino)phenyl]ethyl]morpholin-2-yl]ethyl]phenyl]amino]ethyl]carbamate] | 1.3
CCC[C@@H](c1ccccc1)[C@H](N)C(=O)Nc1cccc(F)c1CC[C@@H]1CN[C@H](COC(=O)NCc2ccc(F)cc2)CO1 [Example 199, (βS)-N-(3-fluoro-2-{2-[(2R,5S)-5-({[(4-fluorobenzyl)carbamoyl]oxy}methyl)morpholin-2-yl]ethyl}phenyl)-β-propyl-L-phenylalaninamide] | 41
CCNC(=O)[C@@H]1CO[C@H](CCc2ccccc2NC(=O)[C@@H](NC(=O)OC)C(c2ccccc2)c2ccccc2)CN1 [Example 3, N-(2-{2-[(2R,5S)-5-(ethylcarbamoyl)morpholin-2-yl]ethyl}phenyl)-Nα-(methoxycarbonyl)-β-phenyl-L-phenylalaninamide] | 15
CN1CCC(NC(=O)OC[C@@H]2CO[C@H](CCc3c(F)cncc3NC(=O)[C@@H](N)C(c3ccc(F)cc3)c3ccc(F)cc3)CN2)C1 (stereo partly drawn) [Example 229, 4-fluoro-N-(5-fluoro-4-{2-[(2R,5S)-5-({[(1-methylpyrrolidin-3-yl)carbamoyl]oxy}methyl)morpholin-2-yl]ethyl}pyridin-3-yl)-β-(4-fluorophenyl)-L-phenylalaninamide] | 190

Reference: US9315475B2 (MERCK SHARP & DOHME CORP., priority 2011, dated 2016)
